{"source": "patent EP1608650B1", "about": "“PYRENE-LINKED PYRROLO(2,1-C)(1,4)BENZODIAZEPINE DERIVATIVES USEFUL AS ANTICANCER AGENTS” (Council of Scientific and Industrial Research, priority 2003, dated 2004)", "key": {"(Breast) MCF7": {"test_system": "(Breast) MCF7", "assay": "In vitro one dose primary anticancer assay (NCI)", "format": "cell-based, human", "settings": "one dose at 10^-4 molar concentration"}, "(Lung) NCI-H460": {"test_system": "(Lung) NCI-H460", "assay": "In vitro one dose primary anticancer assay (NCI)", "format": "cell-based, human", "settings": "one dose at 10^-4 molar concentration"}, "(CNS) SF-268": {"test_system": "(CNS) SF-268", "assay": "In vitro one dose primary anticancer assay (NCI)", "format": "cell-based, human", "settings": "one dose at 10^-4 molar concentration"}, "Colon": {"test_system": "Colon", "settings": "average of six to nine different cancer cell lines, log value", "experimental": "(§1) In vitro biological activity studies were carried out at National Cancer Institute (USA).\n(§2) For each compound, dose response curves for each cell line were measured at a minimum of five concentrations at 10 fold dilutions. A protocol of 48 h continuous drug exposure was used and a sulforhodamine B (SRB) protein assay was used to estimate cell viability or growth. […]\n(§3) Each cancer type represents the average of six to nine different cancer cell lines."}, "CNS": {"test_system": "CNS", "settings": "average of six to nine different cancer cell lines, log value", "experimental": "as §1, §2, §3"}, "Ovarian": {"test_system": "Ovarian", "settings": "average of six to nine different cancer cell lines, log value", "experimental": "as §1, §2, §3"}, "Melanoma": {"test_system": "Melanoma", "settings": "average of six to nine different cancer cell lines, log value", "experimental": "as §1, §2, §3"}, "Renal": {"test_system": "Renal", "settings": "average of six to nine different cancer cell lines, log value", "experimental": "as §1, §2, §3"}, "Breast": {"test_system": "Breast", "settings": "average of six to nine different cancer cell lines, log value", "experimental": "as §1, §2, §3"}, "Non-small-cell lung": {"test_system": "Non-small-cell lung", "settings": "average of six to nine different cancer cell lines, log value", "experimental": "as §1, §2, §3"}, "Prostate": {"test_system": "Prostate", "settings": "average of six to nine different cancer cell lines, log value", "experimental": "as §1, §2, §3"}, "Leukemia": {"test_system": "Leukemia", "settings": "average of six to nine different cancer cell lines, log value", "experimental": "as §1, §2, §3"}, "human tumour cell lines": {"test_system": "human tumour cell lines", "assay": "cells", "experimental": "as §1, §2"}, "colon cancer (HCC-2998)": {"test_system": "colon cancer (HCC-2998)", "settings": "read-out: potency (at the LC50 level)", "experimental": "as §1, §2"}, "[1]": {"test_system": "CNS cancer cell lines (SNB75)", "settings": "read-out: potency (at the LC50 level)", "experimental": "as §1, §2"}, "prostate cancer (DU-145)": {"test_system": "prostate cancer (DU-145)", "settings": "read-out: potency (at the LC50 level)", "experimental": "as §1, §2"}, "melanoma cancer (M14)": {"test_system": "melanoma cancer (M14)", "settings": "read-out: potency (at the LC50 level)", "experimental": "as §1, §2"}, "renal cancer (A498)": {"test_system": "renal cancer (A498)", "settings": "read-out: potency (at the LC50 level)", "experimental": "as §1, §2"}, "[2]": {"test_system": "non-small cell lung cancer (NCI-H226)", "settings": "read-out: potency (at the LC50 level)", "experimental": "as §1, §2"}, "leukemia cancer (SR)": {"test_system": "leukemia cancer (SR)", "settings": "read-out: potency (at the LC50 level)", "experimental": "as §1, §2"}}}
{"compound": "7-Methoxy-8-[N-(1\"-pyrenyl)-butne-4'-carboxamide]-oxy-(11aS)-1,2,3,11a-tetra-hydro-5H-pyrrolo[2,1-c][1,4]benzodiazepin-5-one [Vg]", "values": [{"measurement": "Growth percentages (Breast) MCF7", "setting": "(Breast) MCF7", "result": 72}, {"measurement": "Growth percentages (Lung) NCI-H460", "setting": "(Lung) NCI-H460", "result": 106}, {"measurement": "Growth percentages (CNS) SF-268", "setting": "(CNS) SF-268", "result": 131}]}
{"compound": "COc1cc2c(cc1OCCCC(=O)Nc1ccc3ccc4cccc5ccc1c3c45)N=C[C@@H]1CCCN1C2=O", "note": "[Ve, 7-Methoxy-8-[N-(1\"-pyrenyl)-propane-3'-carboxamide]-oxy-(11aS)-1,2,3,11atetra-hydro-5H-pyrrolo[2,1-c][1,4]benzodiazepin-5-one]", "values": [{"measurement": "Log LC50 (concentration in mol/L causing 50% lethality)", "setting": "Colon", "result": -5.00, "unit": "mol/L"}, {"measurement": "Log LC50 (concentration in mol/L causing 50% lethality)", "setting": "CNS", "result": -5.23, "unit": "mol/L"}, {"measurement": "Log LC50 (concentration in mol/L causing 50% lethality)", "setting": "Ovarian", "result": "> -4.00", "unit": "mol/L"}, {"measurement": "Log LC50 (concentration in mol/L causing 50% lethality)", "setting": "Melanoma", "result": -5.62, "unit": "mol/L"}, {"measurement": "Log LC50 (concentration in mol/L causing 50% lethality)", "setting": "Renal", "result": -5.05, "unit": "mol/L"}, {"measurement": "Log LC50 (concentration in mol/L causing 50% lethality)", "setting": "Breast", "result": "> -4.00", "unit": "mol/L"}, {"measurement": "Log LC50 (concentration in mol/L causing 50% lethality)", "setting": "Non-small-cell lung", "result": -4.67, "unit": "mol/L"}, {"measurement": "Log LC50 (concentration in mol/L causing 50% lethality)", "setting": "Prostate", "result": -5.30, "unit": "mol/L"}, {"measurement": "Log LC50 (concentration in mol/L causing 50% lethality)", "setting": "Leukemia", "result": -4.65, "unit": "mol/L"}, {"measurement": "GI50", "setting": "human tumour cell lines; Homo sapiens, 48 h, read-out: Log10 GI50 (converted)", "result": 17.8, "unit": "nM"}, {"measurement": "Log10 LC50", "setting": "human tumour cell lines; mean graph midpoint (MG_MID), 48 h continuous drug exposure, 50% cell death", "result": -4.74}, {"measurement": "Log10 TGI", "setting": "human tumour cell lines; mean graph midpoint (MG_MID), 48 h continuous drug exposure, total cell growth inhibition", "result": -6.89}, {"measurement": "CC50", "setting": "colon cancer (HCC-2998)", "result": 10, "unit": "nM"}, {"measurement": "CC50", "setting": "[1]", "result": 10000, "unit": "nM"}, {"measurement": "CC50", "setting": "prostate cancer (DU-145)", "result": 10000, "unit": "nM"}, {"measurement": "CC50", "setting": "melanoma cancer (M14)", "result": 100, "unit": "nM"}, {"measurement": "CC50", "setting": "renal cancer (A498)", "result": 100, "unit": "nM"}, {"measurement": "CC50", "setting": "[2]", "result": 10, "unit": "nM"}, {"measurement": "CC50", "setting": "leukemia cancer (SR)", "result": 100, "unit": "nM"}, {"measurement": "Growth percentages (Breast) MCF7", "setting": "(Breast) MCF7", "result": 31}, {"measurement": "Growth percentages (Lung) NCI-H460", "setting": "(Lung) NCI-H460", "result": 11}, {"measurement": "Growth percentages (CNS) SF-268", "setting": "(CNS) SF-268", "result": 70}]}
